Values of other authors, collected in US6251886A, “Methods of using temozolomide in the treatment of cancers” (priority 1999, dated 2001).
“Also recorded” adds a separate entry of the source. Where two headings read alike, the source gives them in different places.

Legend:
[1] = test system: D456-MG human glioma xenograft
[2] = test system: leptomeningeal medulloblastoma and pineoblastoma; conditions: i.t., Phase I
brain tumors = conditions: clinical trials, vs adjuvant BCNU
[3] = systemic temozolomide, rat
murine tumors = conditions: mouse, in vivo
[4] = known property
[5] = oral therapy
advanced melanoma [6] = conditions: Phase I, patients with advanced melanoma
[7] = systemic temozolomide, Rhesus monkeys
advanced melanoma [8] = conditions: Phase II, 60 patients with advanced melanoma
human CNS xenografts = conditions: s.c. in athymic nude mice
[9] = not given; remark: listed apart in the source
[10] = common, but tolerable
[11] = clinical trials
[12] = Phase I, single-dose i.v. and oral

SMILES: O=NN(CCCl)C(=O)NCCCl [BCNU, 1,3-bis(2-chloroethyl)-1-nitrosourea]
- resistance of D456 to BCNU [1]: resistant

SMILES: Cn1nnc2c(C(N)=O)ncn2c1=O [microcrystalline temozolomide]
- sensitivity to BCNU (Mer- human MG xenograft): BCNU-sensitive
- resistance of D456 to BCNU [1]: BCNU-resistant

SMILES: N[C@@H](Cc1ccc(N(CCCl)CCCl)cc1)C(=O)O [melphalan]
- activity in patients [2]: activity has been seen in patients with leptomeningeal medulloblastoma and pineoblastoma

SMILES: CNNCc1ccc(C(=O)NC(C)C)cc1 [procarbazine]
- activity against brain tumors (brain tumors): results comparable to adjuvant BCNU

SMILES: Cn1nnc2c(C(N)=O)ncn2c1=O [temozolomide, 3,4-dihydro-3-methyl-4-oxoimidazo-[5,1-d]-1,2,3,4-tetrazin-8-carboximide]
- penetration into the CSF (CSF to plasma AUC zero to infinity ratio) [3]: 41% to 44
- activity against murine tumors (murine tumors): activity against a spectrum of murine tumors
- solubility (in words) [4]: marked insolubility; also recorded: poor solubility
- peak serum concentrations [5]: approximately 10 mg/L
- effective concentration in vitro: 0.1 mM
- clinical responses (advanced melanoma [6]): 17%
- penetration into the CSF (CSF to plasma AUC zero to infinity ratio) [7]: 29.8%
- clinical response (advanced melanoma [8]): 21%
- activity against human CNS xenografts (human CNS xenografts): activity of temozolomide against a series of human CNS xenografts
- dose-limiting toxicity ([9]; Phase I and II, five-day regimen): dose-limiting myelosuppression; also recorded: dose-limiting stem cell toxicity
- anti-neoplastic activity ([9]; Phase I and II, five-day regimen, including high-grade glioma): intriguing anti-neoplastic activity
- antineoplastic activity [9, 12]: trivial antineoplastic activity
- dose-limiting toxicity [9, 12]: dose-limiting myelosuppression
- side effect [10]: nausea and vomiting

SMILES: NC(=O)c1ncn2c(=O)n(CCCl)nnc12 [mitozolomide]
- thrombocytopenia [11]: severe and unpredictable thrombocytopenia
